Experimental data taken from ChEMBL document CHEMBL4507294, “Data for DCP probe MSD-CYP11B2” (2021).

What was measured:
[1] = target: Phosphatidylinositol 4-phosphate 3-kinase C2 domain-containing subunit beta (Homo sapiens) (UniProt O00750); details: Compound concentration 1000.0 nM
[2] = tested on: Epidermal growth factor receptor (Homo sapiens), P00533 [G719C]; details: Compound concentration 1000.0 nM
[3] = target: 5-hydroxytryptamine receptor 5A (Homo sapiens) (UniProt P47898); details: Compound concentration 10.0 uM
[4] = target: 5-hydroxytryptamine receptor 6 (Homo sapiens, UniProt P50406); details: Compound concentration 10.0 uM
[5] = target: T1, 5-hydroxytryptamine receptor 3A (Homo sapiens) (UniProt P46098); details: Compound concentration 10.0 uM
T1 sequence (whole entry): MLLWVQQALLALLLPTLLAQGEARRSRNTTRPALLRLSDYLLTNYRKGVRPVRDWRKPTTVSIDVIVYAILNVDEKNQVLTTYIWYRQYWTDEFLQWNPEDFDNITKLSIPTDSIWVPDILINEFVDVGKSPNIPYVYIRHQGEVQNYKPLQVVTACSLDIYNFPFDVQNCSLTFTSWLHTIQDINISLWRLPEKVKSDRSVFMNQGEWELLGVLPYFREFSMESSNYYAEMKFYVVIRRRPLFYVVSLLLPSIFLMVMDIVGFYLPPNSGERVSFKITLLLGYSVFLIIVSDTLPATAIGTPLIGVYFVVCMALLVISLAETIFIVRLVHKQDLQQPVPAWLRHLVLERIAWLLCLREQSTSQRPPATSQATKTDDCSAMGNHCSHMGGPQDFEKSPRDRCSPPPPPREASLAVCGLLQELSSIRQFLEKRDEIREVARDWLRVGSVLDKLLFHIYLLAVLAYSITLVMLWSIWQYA

[6] = target: Cyclin-dependent kinase 2 (Homo sapiens) (UniProt P24941); details: Compound concentration 1000.0 nM
[7] = target: Serine/threonine-protein kinase RIO3 (Homo sapiens) (UniProt O14730); details: Compound concentration 1000.0 nM
[8] = target: Receptor tyrosine-protein kinase erbB-4 (Homo sapiens) (UniProt Q15303); details: Compound concentration 1000.0 nM
[9] = target: T2, Muscarinic acetylcholine receptor M1 (Homo sapiens) (UniProt P11229); details: Compound concentration 10.0 uM
T2 sequence (whole entry): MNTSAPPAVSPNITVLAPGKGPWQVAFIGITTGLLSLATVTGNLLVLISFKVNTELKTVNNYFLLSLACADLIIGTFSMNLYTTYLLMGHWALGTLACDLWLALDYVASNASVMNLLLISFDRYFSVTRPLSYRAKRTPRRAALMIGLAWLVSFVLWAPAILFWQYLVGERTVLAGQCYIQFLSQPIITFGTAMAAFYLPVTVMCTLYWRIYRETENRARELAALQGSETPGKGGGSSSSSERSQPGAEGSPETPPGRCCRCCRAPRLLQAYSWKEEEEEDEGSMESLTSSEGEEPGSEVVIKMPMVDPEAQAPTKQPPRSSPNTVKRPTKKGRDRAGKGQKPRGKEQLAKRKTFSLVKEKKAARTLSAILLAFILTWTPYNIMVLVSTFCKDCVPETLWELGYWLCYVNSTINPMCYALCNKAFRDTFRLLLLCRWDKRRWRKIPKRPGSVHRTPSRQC

[10] = tested on: Mast/stem cell growth factor receptor Kit (Homo sapiens), P10721 [D816H]; details: Compound concentration 1000.0 nM
[11] = tested on: Receptor-type tyrosine-protein kinase FLT3 (Homo sapiens), P36888 [D835H]; details: Compound concentration 1000.0 nM
[12] = target: Ribosomal protein S6 kinase alpha-4 (Homo sapiens) (UniProt O75676); details: Compound concentration 1000.0 nM
[13] = target: Casein kinase I isoform epsilon (Homo sapiens) (UniProt P49674); details: Compound concentration 1000.0 nM
[14] = target: Epidermal growth factor receptor (Homo sapiens) (UniProt P00533); details: Compound concentration 1000.0 nM
[15] = target: Hepatocyte growth factor receptor (Homo sapiens) (UniProt P08581); details: Compound concentration 1000.0 nM
[16] = target: Leukocyte tyrosine kinase receptor (Homo sapiens) (UniProt P29376); details: Compound concentration 1000.0 nM
[17] = tested on: Epidermal growth factor receptor (Homo sapiens), P00533 [UNDEFINED MUTATION]; details: Compound concentration 1000.0 nM
[18] = target: Beta-3 adrenergic receptor (Homo sapiens) (UniProt P13945); details: Compound concentration 10.0 uM
[19] = target: Serine/threonine-protein kinase N1 (Homo sapiens) (UniProt Q16512); details: Compound concentration 1000.0 nM
[20] = target: Serine/threonine-protein kinase MRCK gamma (Homo sapiens) (UniProt Q6DT37); details: Compound concentration 1000.0 nM
[21] = target: Dual specificity tyrosine-phosphorylation-regulated kinase 1B (Homo sapiens) (UniProt Q9Y463); details: Compound concentration 1000.0 nM
[22] = target: Proto-oncogene tyrosine-protein kinase ROS (Homo sapiens) (UniProt P08922); details: Compound concentration 1000.0 nM
[23] = target: STE20-like serine/threonine-protein kinase (Homo sapiens) (UniProt Q9H2G2); details: Compound concentration 1000.0 nM
[24] = tested on: Tyrosine-protein kinase ABL1 (Homo sapiens), P00519 [H396P]; details: Compound concentration 1000.0 nM
[25] = target: Serine/threonine-protein kinase 32A (Homo sapiens) (UniProt Q8WU08); details: Compound concentration 1000.0 nM
[26] = target: Fibroblast growth factor receptor 2 (Homo sapiens) (UniProt P21802); details: Compound concentration 1000.0 nM
[27] = target: Casein kinase I isoform gamma-3 (Homo sapiens) (UniProt Q9Y6M4); details: Compound concentration 1000.0 nM
[28] = target: Tyrosine-protein kinase HCK (Homo sapiens) (UniProt P08631); details: Compound concentration 1000.0 nM
[29] = target: Tyrosine-protein kinase SYK (Homo sapiens) (UniProt P43405); details: Compound concentration 1000.0 nM
[30] = target: Mitogen-activated protein kinase kinase kinase 11 (Homo sapiens) (UniProt Q16584); details: Compound concentration 1000.0 nM
[31] = target: Rhodopsin kinase GRK7 (Homo sapiens) (UniProt Q8WTQ7); details: Compound concentration 1000.0 nM
[32] = tested on: Mast/stem cell growth factor receptor Kit (Homo sapiens), P10721 [V559D,V654A]; details: Compound concentration 1000.0 nM
[33] = tested on: Tyrosine-protein kinase ABL1 (Homo sapiens), P00519 [E255K]; details: Compound concentration 1000.0 nM

Chain of Mitogen-activated protein kinase kinase kinase 11 (Homo sapiens) (Q16584 whole entry, looked up): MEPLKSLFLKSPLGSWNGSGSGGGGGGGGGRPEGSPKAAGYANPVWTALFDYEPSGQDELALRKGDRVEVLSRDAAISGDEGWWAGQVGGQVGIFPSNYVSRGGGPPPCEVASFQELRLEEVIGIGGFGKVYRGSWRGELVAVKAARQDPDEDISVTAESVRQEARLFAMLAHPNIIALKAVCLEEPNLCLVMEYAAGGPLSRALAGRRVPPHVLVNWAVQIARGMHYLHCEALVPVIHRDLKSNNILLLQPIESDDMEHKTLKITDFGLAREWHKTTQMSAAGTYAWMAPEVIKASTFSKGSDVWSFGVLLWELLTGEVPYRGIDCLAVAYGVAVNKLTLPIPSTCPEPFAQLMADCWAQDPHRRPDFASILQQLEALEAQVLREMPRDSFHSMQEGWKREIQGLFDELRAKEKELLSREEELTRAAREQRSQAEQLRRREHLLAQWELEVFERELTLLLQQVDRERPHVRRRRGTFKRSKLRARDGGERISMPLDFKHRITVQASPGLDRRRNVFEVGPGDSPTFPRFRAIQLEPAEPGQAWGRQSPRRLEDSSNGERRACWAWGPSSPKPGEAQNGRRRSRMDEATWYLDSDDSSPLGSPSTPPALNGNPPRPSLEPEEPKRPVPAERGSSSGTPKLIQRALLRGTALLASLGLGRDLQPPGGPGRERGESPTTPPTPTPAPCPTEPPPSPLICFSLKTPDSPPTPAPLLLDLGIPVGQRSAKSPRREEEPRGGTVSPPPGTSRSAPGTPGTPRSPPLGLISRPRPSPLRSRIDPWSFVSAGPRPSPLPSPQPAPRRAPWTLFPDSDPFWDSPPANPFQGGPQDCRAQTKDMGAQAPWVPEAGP
Chain of Casein kinase I isoform epsilon (Homo sapiens) (P49674 whole entry, looked up, canonical isoform): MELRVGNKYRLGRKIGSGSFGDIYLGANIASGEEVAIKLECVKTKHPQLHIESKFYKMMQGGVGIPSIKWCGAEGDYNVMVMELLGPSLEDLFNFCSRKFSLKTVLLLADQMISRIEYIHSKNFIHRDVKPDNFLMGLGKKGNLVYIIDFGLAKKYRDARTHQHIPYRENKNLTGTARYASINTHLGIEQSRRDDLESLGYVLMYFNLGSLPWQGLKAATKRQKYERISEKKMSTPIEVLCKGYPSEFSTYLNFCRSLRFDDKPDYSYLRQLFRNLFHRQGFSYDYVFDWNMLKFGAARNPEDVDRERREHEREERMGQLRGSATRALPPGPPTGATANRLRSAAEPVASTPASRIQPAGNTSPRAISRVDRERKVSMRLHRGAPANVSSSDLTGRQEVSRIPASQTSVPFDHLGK
Chain of Dual specificity tyrosine-phosphorylation-regulated kinase 1B (Homo sapiens) (Q9Y463 whole entry, looked up): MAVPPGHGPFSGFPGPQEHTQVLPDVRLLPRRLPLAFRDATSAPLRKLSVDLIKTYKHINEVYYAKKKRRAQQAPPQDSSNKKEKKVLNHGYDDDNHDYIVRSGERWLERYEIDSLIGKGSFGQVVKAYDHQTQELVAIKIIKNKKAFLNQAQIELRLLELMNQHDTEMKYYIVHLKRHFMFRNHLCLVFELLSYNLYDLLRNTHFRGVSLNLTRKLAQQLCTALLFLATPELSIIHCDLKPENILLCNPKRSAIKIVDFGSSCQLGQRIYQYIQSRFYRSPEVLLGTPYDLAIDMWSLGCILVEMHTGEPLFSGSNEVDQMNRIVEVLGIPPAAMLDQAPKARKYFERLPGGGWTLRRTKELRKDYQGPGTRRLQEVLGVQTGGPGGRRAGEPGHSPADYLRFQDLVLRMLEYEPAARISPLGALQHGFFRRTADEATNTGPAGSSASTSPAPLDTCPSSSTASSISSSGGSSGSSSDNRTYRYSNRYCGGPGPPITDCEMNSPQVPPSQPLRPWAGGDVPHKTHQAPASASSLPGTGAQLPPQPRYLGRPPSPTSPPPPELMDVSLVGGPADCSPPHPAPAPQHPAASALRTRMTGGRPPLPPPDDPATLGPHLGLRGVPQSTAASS
Chain of Serine/threonine-protein kinase MRCK gamma (Homo sapiens) (Q6DT37 whole entry): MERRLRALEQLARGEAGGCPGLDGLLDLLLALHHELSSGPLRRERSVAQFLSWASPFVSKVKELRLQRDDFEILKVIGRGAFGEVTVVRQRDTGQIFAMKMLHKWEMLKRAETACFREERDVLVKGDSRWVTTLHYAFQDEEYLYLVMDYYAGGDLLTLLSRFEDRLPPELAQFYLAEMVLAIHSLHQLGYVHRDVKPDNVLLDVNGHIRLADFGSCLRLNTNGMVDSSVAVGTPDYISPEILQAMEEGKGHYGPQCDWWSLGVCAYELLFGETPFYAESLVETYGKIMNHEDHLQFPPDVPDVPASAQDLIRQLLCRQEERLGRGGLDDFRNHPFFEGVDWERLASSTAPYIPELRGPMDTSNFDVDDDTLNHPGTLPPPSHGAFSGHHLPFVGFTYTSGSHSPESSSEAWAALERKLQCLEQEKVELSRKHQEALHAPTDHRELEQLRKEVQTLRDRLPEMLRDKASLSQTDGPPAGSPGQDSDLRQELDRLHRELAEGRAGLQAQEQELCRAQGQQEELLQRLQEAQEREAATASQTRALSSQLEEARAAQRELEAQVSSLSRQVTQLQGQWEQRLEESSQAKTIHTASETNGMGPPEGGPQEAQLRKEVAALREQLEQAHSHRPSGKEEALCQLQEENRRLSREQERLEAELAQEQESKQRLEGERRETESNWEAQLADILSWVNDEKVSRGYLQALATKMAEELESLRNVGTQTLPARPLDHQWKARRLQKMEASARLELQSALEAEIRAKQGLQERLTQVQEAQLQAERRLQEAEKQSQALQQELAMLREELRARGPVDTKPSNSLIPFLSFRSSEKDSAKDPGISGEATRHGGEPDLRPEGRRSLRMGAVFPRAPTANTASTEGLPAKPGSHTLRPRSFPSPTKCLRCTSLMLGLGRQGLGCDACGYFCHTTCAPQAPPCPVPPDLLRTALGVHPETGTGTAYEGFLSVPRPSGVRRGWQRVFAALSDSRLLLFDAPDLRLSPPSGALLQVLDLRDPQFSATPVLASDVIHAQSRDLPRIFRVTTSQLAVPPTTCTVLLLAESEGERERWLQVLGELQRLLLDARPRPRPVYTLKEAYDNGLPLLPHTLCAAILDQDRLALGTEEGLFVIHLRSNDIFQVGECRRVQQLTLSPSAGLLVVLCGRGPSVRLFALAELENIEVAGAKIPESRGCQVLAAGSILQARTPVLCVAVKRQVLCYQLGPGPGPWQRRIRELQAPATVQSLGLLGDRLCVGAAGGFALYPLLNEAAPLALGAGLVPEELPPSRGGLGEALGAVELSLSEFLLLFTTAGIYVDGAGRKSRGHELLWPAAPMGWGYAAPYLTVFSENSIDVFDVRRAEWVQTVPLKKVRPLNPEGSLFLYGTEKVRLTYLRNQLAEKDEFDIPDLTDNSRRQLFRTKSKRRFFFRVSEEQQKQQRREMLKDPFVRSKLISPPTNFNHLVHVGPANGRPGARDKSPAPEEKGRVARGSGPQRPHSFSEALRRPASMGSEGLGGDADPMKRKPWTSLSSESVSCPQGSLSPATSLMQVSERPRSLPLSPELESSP
Chain of Mast/stem cell growth factor receptor Kit (Homo sapiens), P10721 [D816H] (P10721 whole entry D816H): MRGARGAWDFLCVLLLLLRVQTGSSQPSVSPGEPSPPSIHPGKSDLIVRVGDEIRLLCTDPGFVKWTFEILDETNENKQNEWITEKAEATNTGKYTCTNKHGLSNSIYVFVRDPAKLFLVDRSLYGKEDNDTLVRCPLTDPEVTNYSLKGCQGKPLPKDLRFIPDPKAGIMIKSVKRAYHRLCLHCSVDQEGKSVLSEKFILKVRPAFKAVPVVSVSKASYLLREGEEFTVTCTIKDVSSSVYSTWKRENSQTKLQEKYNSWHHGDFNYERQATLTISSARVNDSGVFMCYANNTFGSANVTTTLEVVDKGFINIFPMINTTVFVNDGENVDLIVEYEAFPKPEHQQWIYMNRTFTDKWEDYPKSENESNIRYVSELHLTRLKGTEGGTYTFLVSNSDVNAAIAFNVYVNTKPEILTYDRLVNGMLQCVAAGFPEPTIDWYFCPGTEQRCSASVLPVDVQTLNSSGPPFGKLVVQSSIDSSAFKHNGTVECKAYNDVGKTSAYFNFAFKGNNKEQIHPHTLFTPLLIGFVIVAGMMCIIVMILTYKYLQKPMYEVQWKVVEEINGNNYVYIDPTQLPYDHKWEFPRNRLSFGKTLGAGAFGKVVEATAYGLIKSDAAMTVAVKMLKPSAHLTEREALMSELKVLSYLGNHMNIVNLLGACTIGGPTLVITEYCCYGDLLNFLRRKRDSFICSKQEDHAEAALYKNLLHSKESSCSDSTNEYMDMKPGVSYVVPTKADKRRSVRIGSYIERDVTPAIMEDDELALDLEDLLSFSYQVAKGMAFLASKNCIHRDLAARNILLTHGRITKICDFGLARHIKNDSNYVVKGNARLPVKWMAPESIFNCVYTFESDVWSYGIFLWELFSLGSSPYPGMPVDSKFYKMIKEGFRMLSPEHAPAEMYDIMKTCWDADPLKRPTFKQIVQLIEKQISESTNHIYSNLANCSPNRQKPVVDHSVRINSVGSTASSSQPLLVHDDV
Chain of Mast/stem cell growth factor receptor Kit (Homo sapiens), P10721 [V559D,V654A] (P10721 whole entry V559D/V654A): as the sequence (P10721 whole entry D816H) above, with V559D, V654A, H816D counted along it
Chain of Rhodopsin kinase GRK7 (Homo sapiens) (Q8WTQ7 whole entry): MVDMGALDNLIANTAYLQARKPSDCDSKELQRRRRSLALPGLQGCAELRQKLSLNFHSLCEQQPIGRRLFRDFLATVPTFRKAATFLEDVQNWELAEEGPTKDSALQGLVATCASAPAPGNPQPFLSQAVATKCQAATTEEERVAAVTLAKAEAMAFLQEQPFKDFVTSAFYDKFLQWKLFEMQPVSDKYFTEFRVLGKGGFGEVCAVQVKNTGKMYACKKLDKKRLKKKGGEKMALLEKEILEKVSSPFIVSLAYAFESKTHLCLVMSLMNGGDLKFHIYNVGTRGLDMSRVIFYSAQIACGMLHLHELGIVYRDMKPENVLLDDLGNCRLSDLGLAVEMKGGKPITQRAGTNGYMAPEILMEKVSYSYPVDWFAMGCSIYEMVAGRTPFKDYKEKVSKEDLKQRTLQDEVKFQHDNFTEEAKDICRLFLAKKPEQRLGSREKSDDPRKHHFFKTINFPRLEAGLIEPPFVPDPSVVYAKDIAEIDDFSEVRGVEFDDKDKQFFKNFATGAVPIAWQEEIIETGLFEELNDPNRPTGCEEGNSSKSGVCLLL

SMILES	residual activity [1]	residual activity [2]	inhibition [3]	inhibition [4]	inhibition [5]	residual activity [6]	residual activity [7]	residual activity [8]	inhibition [9]	residual activity [10]	residual activity [11]	residual activity [12]	residual activity [13]	residual activity [14]	residual activity [15]	residual activity [16]	residual activity [17]	inhibition [18]	residual activity [19]	residual activity [20]	further results
CC(C)(O)c1cncc(-c2nc3ccc(F)cc3n2C2CC2)c1 [MSD-CYP11B2]	95%	100%	-9.57%	15.6%	-6.88%	100%	100%	100%	-4.49%	100%	89%	100%	100%	100%	100%	100%	100%	16.7%	100%	100%	residual activity [21]: 44%; residual activity [22]: 100%; residual activity [23]: 100%; residual activity [24]: 100%; residual activity [25]: 100%; residual activity [26]: 100%; residual activity [27]: 100%; residual activity [28]: 100%; residual activity [29]: 100%; residual activity [30]: 100%; residual activity [31]: 86%; residual activity [32]: 87%; residual activity [33]: 100%
FC(F)(F)c1ccc2c(c1)nc(-c1cccnc1)n2C1CC1 [MSD-CYP11B2-Negative-control]	100%	92%	-2.64%	60.4%	-8.72%	100%	93%	100%	-7.11%	100%	69%	100%	100%	86%	100%	100%	100%	-1.88%	100%	100%	residual activity [21]: 53%; residual activity [22]: 100%; residual activity [23]: 100%; residual activity [24]: 100%; residual activity [25]: 89%; residual activity [26]: 100%; residual activity [27]: 100%; residual activity [28]: 100%; residual activity [29]: 100%; residual activity [30]: 100%; residual activity [31]: 81%; residual activity [32]: 100%; residual activity [33]: 100%
